Reference: patent US20250170155A1, “NUCLEOSIDE DERIVATIVES AND PRODRUGS THEREOF HAVING VIRAL GROWTH INHIBITORY ACTION” (Shionogi & Co., Ltd., priority 2021, published 2025)

Tests used:
Format in all cases: cell-based
[1] = Cytotoxic activity evaluation, Vero E6/TMPRSS2 cells; settings: African green monkey, no virus
Description: (§1) <Operation Procedure (Cytotoxic Activity Evaluation)>
A 3- to 5-fold serial dilution series of test substances was prepared in DMSO, diluted with 2% FBS/MEM so that the concentration of DMSO was 2%, and dispensed into a 96 well plate (50 μL/well, DMSO final concentration 0.5%). • Dilution and dispensing of cells
The cells prepared to an appropriate number were seeded at 100 μL/well to the plate into which the test substance was dispensed. Thereafter, the cells were cultured in a CO2 incubator at 37° C. for 3 days. • Dispensing of CellTiter-Glo (registered trademark) 2.0 Reagent
(§2) Same as those described in the section for evaluation of antiviral activity • Measurement of luminescence intensity
(§3) Same as those described in the section for evaluation of antiviral activity
Excel, TIBCO Spotfire, or a program having equivalent calculation processing capability based on the following calculation formula.

[2] = tested on: influenza virus (A/WSN/33 (H1N1) strain); assay: CPE suppression effect confirmation test (influenza virus, RPMI 2650 cells), antiviral activity; settings: for EC50: read-out: Influenza EC50 (50% CPE inhibitory concentration), A/WSN/33 (H1N1), 3 to 6 days
[3] = tested on: SARS-CoV-2 (hCoV-19/Japan/TY/WK-521/2020 strain); assay: CPE suppression effect confirmation test (SARS-CoV-2, Vero E6/TMPRSS2 cells), antiviral activity; settings: for EC50: Severe acute respiratory syndrome coronavirus 2, VeroE6/TMPRSS2, 72 h, read-out: SARS-CoV-2 EC50 (50% CPE inhibitory concentration), 3 days culture
[4] = Cytotoxic activity evaluation, RPMI 2650 cells; settings: human, no virus, 3 to 6 days
Description: as §1
On the day before the compound treatment, cells prepared to an appropriate number were seeded in a 96 well plate at 100 μL/well. Thereafter, the cells were cultured in a CO2 incubator at 37° C. • Preparation of 2 μg/mL trypsin/0.5% BSA/MEM
Same as those described in the section for evaluation of antiviral activity • Dilution and dispensing of test substance
A 3- to 5-fold serial dilution series of test substances was prepared in DMSO in advance, and diluted with 2 μg/mL trypsin/0.5% BSA/MEM so that the final concentration of DMSO was 0.5% (100 to 200 μL/well). The cells were washed with MEM, and then cultured in a test substance-added medium for 3 to 6 days. Double measurement was performed for each drug. • Dispensing of resazurin solution
Same as those described in the section for evaluation of antiviral activity • Measurement of fluorescence intensity
as §3
(§4) [formula] [formula] • Calculation of Selectivity Index (SI)

[5] = tested on: SARS-CoV-2 (hCoV-19/Japan/TY/WK 521/2020 strain); assay: microbe, parasite or virus in culture; settings: HEK293T/ACE2-TMPRSS2 cells; for EC50: Severe acute respiratory syndrome coronavirus 2, HEK-293T, 72 h, read-out: SARS-CoV-2 EC50 (50% CPE inhibitory concentration), 293T-AT, 3 days culture
[6] = Cytotoxic activity evaluation, HEK293T/ACE2-TMPRSS2 cells; settings: human, no virus
Description: as §1
A 3- to 5-fold serial dilution series of test substances was prepared in DMSO, diluted with 2% FIBS/MEM so that the concentration of DMSO was 2%, and dispensed into a 96 or 384/well well plate (50 μL/well or 40 μL/well, DMSO final concentration 0.5%). • Dilution and dispensing of cells
The cells prepared to an appropriate number were seeded at 100 μL/well or 40 μL/well to the plate into which the test substance was dispensed. Thereafter, the cells were cultured in a CO2 incubator at 37° C. for 3 days. • Dispensing of CellTiter-Glo (registered trademark) 2.0 Reagent
as §2, §3, §4

SMILES | CC50 at 3 days [1] [µM] | Influenza SI (Selectivity Index) [2] | EC50 [2] [µM] | SARS-CoV-2 SI (Selectivity Index) [3] | EC50 [3] [µM] | CC50 [4] [µM] | SARS-CoV-2 SI (Selectivity Index), 293T-AT [5] | EC50 [5] [µM] | CC50 at 3 days [6] [µM]
Nc1ncnn2c([C@@H]3N[C@H](CO)[C@@H](O)[C@H]3O)cnc12 [Compound I-001] | 0.977 | 67.1 | 1.05 | <1.22 | > 0.8 | 70.5 |  |  | 
NC(=O)c1cc([C@@H]2N[C@H](CO)[C@@H](O)[C@H]2O)n2ncnc(N)c12 [Compound I-010] | 448 |  |  | 2488 | 0.18 |  | 1050 | 0.0395 | 
Cl.Cl.Nc1ncnn2c([C@@H]3N[C@H](CO)[C@@H](O)[C@H]3O)cc(-c3c[nH]cn3)c12 [Compound I-023] | 157 | 52.7 | 0.983 | 923 | 0.17 | 51.8 |  |  | 
Cl.Nc1ncnn2c([C@@H]3N[C@H](CO)[C@@H](O)[C@H]3O)cc(-c3nc[nH]n3)c12 [Compound I-037] | 17 | <1.70 | > 4 | 8.63 | 1.97 | 6.81 |  |  | 
Cc1nc(-c2cc([C@@H]3N[C@H](CO)[C@@H](O)[C@H]3O)n3ncnc(N)c23)c[nH]1.Cl [Compound I-047] | > 500 |  |  | >10.4 | 48.2 |  |  |  | 
Cl.Nc1ncnn2c([C@@H]3N[C@H](CO)[C@@H](O)[C@H]3O)cc(-c3n[nH]c4ccccc34)c12 [Compound I-049] | 397 |  |  | 5.7 | 69.6 |  |  |  | 
Cc1cc(-c2cc([C@@H]3N[C@H](CO)[C@@H](O)[C@H]3O)n3ncnc(N)c23)[nH]n1.Cl [Compound I-050] | > 500 |  |  | >11.0 | 45.4 |  |  |  | 
Cl.Nc1ncnn2c([C@@H]3N[C@H](CO)[C@@H](O)[C@H]3O)cc(-c3ccc(F)cn3)c12 [Compound I-051] | > 500 |  |  | >6.13 | 81.5 |  |  |  | 
Cl.Nc1nc(F)nn2c([C@@H]3N[C@H](CO)[C@@H](O)[C@H]3O)cc(-c3cc[nH]n3)c12 [Compound I-052] | > 500 |  |  | >79.7 | 6.27 |  |  |  | 
Nc1ncnn2c([C@@H]3N[C@H](CO)[C@@H](O)[C@H]3O)cc(-c3c[nH]nn3)c12 [Compound I-053] | 315 |  |  | 677 | 0.465 |  |  |  | 
Cl.N/C(=N\O)c1cc([C@@H]2N[C@H](CO)[C@@H](O)[C@H]2O)n2nc(F)nc(N)c12 [Compound I-056] | > 500 |  |  | >17.7 | 28.2 |  |  |  | 
Cl.NC(=O)c1cc([C@@H]2N[C@H](CO)[C@@H](O)[C@H]2O)n2nc(F)nc(N)c12 [Compound I-057] | 56.8 |  |  | 434 | 0.131 |  |  |  | 
C#CCNC(=O)c1cc([C@@H]2N[C@H](CO)[C@@H](O)[C@H]2O)n2ncnc(N)c12 [Compound I-075] | > 500 |  |  | >185 | 2.7 |  |  |  | 
CN1[C@H](CO)[C@@H](O)[C@@H](O)[C@@H]1c1cc(C(N)=O)c2c(N)ncnn12.Cl [Compound I-076] | > 500 |  |  | >30.7 | 16.3 |  |  |  | 
CCn1ccc(-c2cc([C@@H]3N[C@H](CO)[C@@H](O)[C@H]3O)n3ncnc(N)c23)n1.Cl [Compound I-081] |  |  |  |  |  |  | 222 | 1.38 | 306
Cl.Nc1nc(F)nn2c([C@@H]3N[C@H](CO)[C@@H](O)[C@H]3O)cc(-c3c[nH]nn3)c12 [Compound I-082] |  |  |  |  |  |  | 37.8 | 3.97 | 150
Cl.Nc1ncnc2c([C@@H]3N[C@H](CO)[C@@H](O)[C@H]3O)cc(-c3c[nH]nn3)n12 [Compound I-083] |  |  |  |  |  |  | 8.71 | 5.2 | 45.3
Cc1cc(-c2cc([C@@H]3N[C@H](CO)[C@@H](O)[C@H]3O)n3nc(F)nc(N)c23)[nH]n1.Cl [Compound I-084] |  |  |  |  |  |  | 48.2 | 5.33 | 257
Cn1ncc(-c2cc([C@@H]3N[C@H](CO)[C@@H](O)[C@H]3O)n3ncnc(N)c23)n1 [Compound I-086] |  |  |  |  |  |  | 19.4 | 11.6 | 225
Cl.Nc1ncnn2c([C@@H]3N[C@H](CO)[C@@H](O)[C@H]3O)cc(-c3cc(O)ccn3)c12 [Compound I-087] |  |  |  |  |  |  | 3.97 | 18.9 | 75
Cc1nc(-c2cc([C@@H]3N[C@H](CO)[C@@H](O)[C@H]3O)n3ncnc(N)c23)n[nH]1 [Compound I-088] |  |  |  |  |  |  | >16.4 | 30.4 | > 500
Cc1nc(N)c2c(C(N)=O)cc([C@@H]3N[C@H](CO)[C@@H](O)[C@H]3O)n2n1.Cl [Compound I-089] |  |  |  |  |  |  | >14.2 | 35.3 | > 500
Cc1cnc(-c2cc([C@@H]3N[C@H](CO)[C@@H](O)[C@H]3O)n3ncnc(N)c23)o1.Cl [Compound I-090] |  |  |  |  |  |  | >13.1 | 38.1 | > 500
Cc1c[nH]c(-c2cc([C@@H]3N[C@H](CO)[C@@H](O)[C@H]3O)n3ncnc(N)c23)n1 [Compound I-091] |  |  |  |  |  |  | >2.29 | 218 | > 250
Cl.Nc1ncnn2c([C@@H]3N[C@H](CO)[C@@H](O)[C@H]3O)cc(-c3ccn(CCO)n3)c12 [Compound I-092] |  |  |  |  |  |  | >1577 | 0.317 | > 500
CCn1cc(-c2cc([C@@H]3N[C@H](CO)[C@@H](O)[C@H]3O)n3ncnc(N)c23)nn1.Cl [Compound I-093] |  |  |  |  |  |  | >2.37 | 211 | > 500
Cl.Nc1nc(F)nn2c([C@@H]3N[C@H](CO)[C@@H](O)[C@H]3O)cc(-c3ncc[nH]3)c12 [Compound I-094] |  |  |  |  |  |  | >10.2 | 49.1 | > 500
Cl.[2H]C([2H])(O)[C@H]1N[C@@H](c2cc(C(N)=O)c3c(N)ncnn23)[C@H](O)[C@@H]1O [Compound I-095] |  |  |  |  |  |  | 2769 | 0.0228 | 62.9
